These results are taken from patent publication US8404713B2, “Quinolinone derivatives as PARP inhibitors” (Janssen Pharmaceutica NV, priority 2007, dated 2013).

Series [1] deals with ischemia and reperfusion of the heart or skeletal muscle. Conditions: rabbits, cited from earlier work.
Series [2] concerns colitis induced by intraluminal trinitrobenzene sulfonic acid. Conditions: rats, colitis by trinitrobenzene sulfonic acid in 50% ethanol; cited from earlier work.
For the next series, the target named is T1, Human PARP-1 enzyme (Homo sapiens, UniProt P09874).
T1 construct: purchased Trevigen
The experiment in a line: In vitro scintillation proximity assay (SPA) for PARP-1 inhibitory activity. Conditions: nicked DNA activated PARP-1, [3H]-NAD+, biotinylated histones; tested between 10^-5 M and 3x10^-9 M; read-out: in vitro SPA assay PARP-1 pIC50 (converted). Format: biochemical. (In a scintillation proximity assay essentially only radioactivity close to the scintillant gives light.)

For another series, the target named is T2, TANK-2 enzyme (Homo sapiens, UniProt Q9H2K2).
T2 construct: made in house
T2 sequence (Q9H2K2 1-1166): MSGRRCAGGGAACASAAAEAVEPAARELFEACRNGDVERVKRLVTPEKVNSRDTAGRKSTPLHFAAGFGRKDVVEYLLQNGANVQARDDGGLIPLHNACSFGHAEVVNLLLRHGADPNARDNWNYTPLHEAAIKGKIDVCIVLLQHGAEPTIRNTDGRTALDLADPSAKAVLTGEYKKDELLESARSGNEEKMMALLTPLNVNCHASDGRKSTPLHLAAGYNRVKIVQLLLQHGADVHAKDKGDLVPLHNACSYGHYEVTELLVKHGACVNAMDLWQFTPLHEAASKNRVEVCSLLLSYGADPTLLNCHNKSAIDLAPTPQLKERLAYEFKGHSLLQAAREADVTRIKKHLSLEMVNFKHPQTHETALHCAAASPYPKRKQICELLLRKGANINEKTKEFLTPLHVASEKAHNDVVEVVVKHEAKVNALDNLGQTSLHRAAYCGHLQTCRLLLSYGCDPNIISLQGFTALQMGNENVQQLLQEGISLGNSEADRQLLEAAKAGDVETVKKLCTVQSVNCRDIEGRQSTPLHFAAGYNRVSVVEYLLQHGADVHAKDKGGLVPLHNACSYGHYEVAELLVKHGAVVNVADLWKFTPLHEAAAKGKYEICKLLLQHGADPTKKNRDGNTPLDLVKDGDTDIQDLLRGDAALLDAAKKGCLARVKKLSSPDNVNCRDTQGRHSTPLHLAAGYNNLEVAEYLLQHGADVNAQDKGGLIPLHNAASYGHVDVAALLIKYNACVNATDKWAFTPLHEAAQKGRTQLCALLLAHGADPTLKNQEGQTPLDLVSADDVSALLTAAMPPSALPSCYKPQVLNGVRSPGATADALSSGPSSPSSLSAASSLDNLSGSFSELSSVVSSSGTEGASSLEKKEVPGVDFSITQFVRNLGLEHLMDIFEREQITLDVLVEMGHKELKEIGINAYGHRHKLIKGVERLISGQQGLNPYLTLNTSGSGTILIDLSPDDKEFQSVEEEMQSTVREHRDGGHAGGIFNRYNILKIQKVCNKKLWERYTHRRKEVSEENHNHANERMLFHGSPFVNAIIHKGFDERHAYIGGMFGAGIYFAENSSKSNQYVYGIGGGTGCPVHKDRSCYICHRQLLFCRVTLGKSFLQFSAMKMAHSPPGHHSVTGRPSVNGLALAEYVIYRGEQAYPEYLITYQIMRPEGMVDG
Kind of series: In vitro scintillation proximity assay (SPA) for TANK-2 inhibitory activity. The class given is biochemical. The following applies: auto-poly(ADP-ribosyl)ation, Ni flash plates; 96-well results if available, otherwise 384-well; tested between 10^-5 M and 3x10^-8 M; read-out: in vitro SPA assay TANK-2 pIC50 (converted).

T1 sequence (P09874 whole entry): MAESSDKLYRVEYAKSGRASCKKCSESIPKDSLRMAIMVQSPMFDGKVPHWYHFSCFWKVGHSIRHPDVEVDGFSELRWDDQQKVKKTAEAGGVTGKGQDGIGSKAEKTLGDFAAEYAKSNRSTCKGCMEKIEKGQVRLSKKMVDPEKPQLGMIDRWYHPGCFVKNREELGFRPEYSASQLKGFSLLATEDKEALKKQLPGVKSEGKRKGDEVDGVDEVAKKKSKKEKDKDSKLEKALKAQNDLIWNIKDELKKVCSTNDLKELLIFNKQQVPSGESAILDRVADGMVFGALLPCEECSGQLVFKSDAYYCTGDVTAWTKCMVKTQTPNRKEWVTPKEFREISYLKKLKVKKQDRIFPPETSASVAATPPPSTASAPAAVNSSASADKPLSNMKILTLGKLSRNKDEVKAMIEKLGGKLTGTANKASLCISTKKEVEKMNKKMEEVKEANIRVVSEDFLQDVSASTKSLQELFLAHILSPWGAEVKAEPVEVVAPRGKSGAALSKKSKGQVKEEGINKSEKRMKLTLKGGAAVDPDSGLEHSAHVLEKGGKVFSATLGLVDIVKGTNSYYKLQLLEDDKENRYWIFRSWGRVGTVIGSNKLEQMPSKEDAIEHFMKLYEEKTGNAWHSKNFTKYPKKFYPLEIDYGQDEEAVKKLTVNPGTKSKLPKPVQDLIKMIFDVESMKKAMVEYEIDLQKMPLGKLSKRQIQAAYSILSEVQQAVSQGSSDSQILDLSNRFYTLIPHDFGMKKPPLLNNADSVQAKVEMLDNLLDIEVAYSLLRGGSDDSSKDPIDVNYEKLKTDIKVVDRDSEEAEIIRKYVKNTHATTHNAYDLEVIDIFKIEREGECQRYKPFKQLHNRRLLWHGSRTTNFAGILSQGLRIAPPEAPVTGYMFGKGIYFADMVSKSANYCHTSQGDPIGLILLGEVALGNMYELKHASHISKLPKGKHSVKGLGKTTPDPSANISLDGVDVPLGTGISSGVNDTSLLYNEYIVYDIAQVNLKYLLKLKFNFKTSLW

In the case of `Oc1cccc2c(O)nccc12` [1,5-dihydroxyisoquinoline], the “reduction in infarct size” value in series [1] (single injection 1 mg/kg) is given as 38-48%.

As to `NC(=O)c1cccc(N)c1` [3-amino-benzamide], in series [1] (single injection 10 mg/kg, one minute before occlusion or one minute before reperfusion), the “reduction in infarct size in the heart” value was 32-42%. Further, the “effect on inflammatory response, morphology and energetic status of the distal colon” value in series [2] was “reduced the inflammatory response and restored the morphology and the energetic status of the distal colon”.

The compound `CCc1cc2ccc(CN3CCN(c4ccccc4)CC3)cc2[nH]c1=O` [Compound 6] came in with a melting point of 242 °C. Moreover, the IC50 at Human PARP-1 enzyme is 0.938 nM. Besides, at TANK-2 enzyme, the IC50 is 1900 nM.

With `CCc1cc2ccc(CNC3CCN(c4ncccn4)CC3)cc2[nH]c1=O` [Compound 15], the melting point was found to be 168 °C. Further, the IC50 on Human PARP-1 enzyme was 77.4 nM. Moreover, the IC50 at TANK-2 enzyme is 2150 nM.

Usually melting point stands for the temperature of the solid-liquid transition.
